Results taken from US9399635B2, “Pyrazole derivative” (GREEN TECH CO., LTD., priority 2011, dated 2016).

How the values were obtained:
[1] = target: T1, recombinant human β-secretase (Homo sapiens, UniProt P56817); assay: Determination of β-secretase inhibitory activity (BACE-1 FRET assay Kit); assay type: biochemical; details: recombinant human β-secretase, fluorescent substrate peptide, 1 hour; read-out: IC50 (μM) Test example 2 (β-secretase inhibitory activity)
T1 construct: purchased Invitrogen
Protocol: Pharmacological Test Example 2: Determination of β-Secretase Inhibitory Activity
The β-secretase inhibitory activity was measured with BACE-1 FRET assay Kit (Invitrogen). The test compounds were prepared using DMSO at 30-fold of their final concentrations and dissolved so that the DMSO concentration would be 10%. To each of the solutions, an equal volume of a recombinant human β-secretase (1 U/mL) dissolved in the assay buffer and an equal volume of fluorescent substrate peptide (2.5 nM) were added and the solutions were left to stand for 1 hour. The fluorescence intensity was measured with a fluorescence plate reader (excitation wavelength: 545 nm; emission wavelength: 590 nm).
The final concentration of each compound at the time of measurement was set at 0.1, 0.3, 1, 3, and 10 μM, at 0.3, 1, 3, 10, and 30 μM, or at 1, 3, 10, 30, and 100 μM.

[2] = target: recombinant three-repeat microtubule-binding domain (3R-MBD) of tau protein (Homo sapiens, UniProt P10636); assay: Determination of tau aggregation inhibitory activity (heparin-induced, thioflavin T fluorescence; electron microscope); assay type: biochemical
Protocol: Pharmacological Test Example 1: Determination of Tau Aggregation Inhibitory Activity
A recombinant three-repeat microtubule-binding domain (3R-MBD) of tau protein was expressed in E. coli and was purified and used for the experiment. The purified tau solution was diluted with a 50 mM Tris-HCl buffer (pH 7.6) to a final concentration of 10 μM. The test compounds were prepared using dimethylsulfoxide (DMSO) at 20-fold of their final concentrations and added to the plate so that the DMSO concentration would be 5%. Heparin was added to the plate so that the final concentration would be 10 μM and the plate was left to stand at 37° C. for 16 hours. Thioflavin T was added to the plate so that the concentration would be 10 μM and the fluorescence intensity was measured with a fluorescence plate reader (PerkinElmer, Inc.) (excitation wavelength: 440 nm; emission wavelength: 480 nm).
The final concentration of each compound at the time of measurement was set at 0.1, 0.3, 1, 3, and 10 μM. The sample to which only DMSO was added was used as a negative control and its fluorescence intensity was taken as 0% inhibitory activity.
The samples were placed on a grid and washed with distilled water. A 1 mM phosphotungstic acid aqueous solution was added to the samples. The samples were washed, dried overnight, and observed.

[3] = system: sarcosyl-insoluble tau in the brain of tau N279K Tg mice; assay: Tau aggregation inhibitory activity in mice with oral administration (brain sarcosyl-insoluble tau ELISA); assay type: in vivo; details: oral 10, 20, or 40 mg/kg bw/day, four weeks (FIG. 4)
Protocol: Pharmacological test example 6: Determination of tau aggregation inhibitory activity in mice with oral administration
To tau N279K Tg mice (male, 8 months old, n=8), the compound of Example 2 was orally administered and the tau concentration in the brain was measured. The administration vehicle was an 80% PEG 400 aqueous solution. The dose volume was 10 mL/kg bw/day and the dose was adjusted to be 10, 20, or 40 mg/kg bw/day. To Vehicle group, 10 mL/kg bw/day of an 80% PEG 400 aqueous solution was administered. To Positive control compound group, methylene blue (MB) adjusted to be 40 mg/kg bw/day was administered. Administration was performed with an oral feeding tube (Fuchigami Kikai Company) by gavage and continued for four weeks. After termination of the administration, the mice were sacrificed under pentobarbital anesthesia and the brain was harvested. The brain was homogenized after addition of a 5-fold volume of a high salt buffer (0.8 M NaCl, 1 mM EGTA, 10 mM Tris-HCl, 10% sucrose). […] An amount of 100 μL of a reaction stop solution was added to stop the chromogenic reaction and the absorbance was measured at 450 nm with a microplate reader. The tau concentration was determined from the standard curve produced from the measured values of the standard curve dilution series.

[4] = system: Aβ 1-42 in the brain of APPswe/PS1dE9 Tg mice; assay: Aβ aggregation inhibitory activity and Aβ production inhibitory activity in mice with oral administration (brain Aβ 1-42 ELISA); assay type: in vivo; details: oral 25 or 50 mg/kg bw/day, four weeks (FIG. 3)
Protocol: Pharmacological test example 5: Determination of Aβ aggregation inhibitory activity and Aβ production inhibitory activity in mice with oral administration
To APPswe/PS1dE9 Tg mice (male, 10 to 12 months old, n=8 to 10), the compound of Example 2 was orally administered and the concentration of Aβ in the brain was measured. The administration vehicle was an 80% PEG 400 aqueous solution. The dose volume was 10 mL/kg bw/day and the dose was adjusted to be 25 mg/kg bw/day or 50 mg/kg bw/day. To Vehicle group, 10 mL/kg bw/day of an 80% PEG 400 aqueous solution was administered. Administration was performed with an oral feeding tube (Fuchigami Kikai Company) by gavage and continued for four weeks. After termination of the administration, the mice were sacrificed under pentobarbital anesthesia and the brain was harvested. The brain was homogenized after addition of a 10-fold volume of a phosphoric acid buffer (pH 7.4) and the homogenate was centrifuged at 4° C., 16,000 g for 1 hour. The centrifugal supernatant was used as a soluble protein sample. […] An amount of 100 μL of a reaction stop solution was added to stop the chromogenic reaction and the absorbance was measured at 450 nm with a microplate reader (Bio-Rad). The Aβ concentration was determined from the standard curve produced from the measured values of the standard curve dilution series.

Chain of recombinant three-repeat microtubule-binding domain (3R-MBD) of tau protein (P10636 186-279 isoform P10636-2 limits assumed): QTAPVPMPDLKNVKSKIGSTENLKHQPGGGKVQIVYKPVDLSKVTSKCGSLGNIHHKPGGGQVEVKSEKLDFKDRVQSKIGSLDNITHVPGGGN
T1 sequence (P56817 46-501): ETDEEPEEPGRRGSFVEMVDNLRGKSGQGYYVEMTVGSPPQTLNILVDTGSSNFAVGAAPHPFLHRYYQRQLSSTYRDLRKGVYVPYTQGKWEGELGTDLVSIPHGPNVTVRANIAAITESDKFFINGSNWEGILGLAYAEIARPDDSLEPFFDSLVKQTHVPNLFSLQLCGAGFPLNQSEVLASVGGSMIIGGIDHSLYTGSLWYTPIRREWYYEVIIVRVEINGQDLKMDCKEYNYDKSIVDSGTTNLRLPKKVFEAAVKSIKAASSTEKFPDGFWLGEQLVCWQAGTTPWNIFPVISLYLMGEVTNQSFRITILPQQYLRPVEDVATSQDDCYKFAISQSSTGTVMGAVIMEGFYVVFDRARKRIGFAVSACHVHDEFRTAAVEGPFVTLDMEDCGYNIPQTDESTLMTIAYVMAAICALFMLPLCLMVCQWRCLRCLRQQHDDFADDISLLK

Compound: COc1cc(OCc2ccccn2)ccc1/C=C/c1cc(/C=C/c2ccc3cc[nH]c3c2)[nH]n1 [Example 2, 3-[(1E)-2-(1H-indol-6-yl)ethenyl]-5-[(1E)-2-[2-methoxy-4-(2-pyridylmethoxy)phenyl]ethenyl]-1H-pyrazole]
- IC50 [1]: 3 µM
- tau aggregate formation observed with an electron microscope ([2]; 0.1 μM and 1 μM, compared with DMSO only (FIG. 1)): less tau aggregate formation
- IC50 ([2]; 3R-MBD tau 10 μM, heparin 10 μM, 37° C. for 16 hours, thioflavin T, read-out: IC50 (μM) Test example 1 (tau aggregation inhibitory activity)): 0.92 µM
- amount of the sarcosyl-insoluble tau in the brain [3]: decreased in a dose-dependent manner
- amount of insoluble Aβ 1-42 in the brain [4]: decreased in a dose-dependent manner
- amount of soluble Aβ 1-42 in the brain [4]: decreased in a dose-dependent manner
